What is called IC50 is the concentration that inhibits the measured activity by half. The low end stands for inhibition by little substance, the high end for a need for much substance.

These results are taken from ChEMBL document CHEMBL5143594 (Bioorg Med Chem Lett, 2022).

Common to all, as to set-up: species or system Severe acute respiratory syndrome coronavirus 2
Assay [1] in a line: Inhibition of SARS-CoV-2 main protease G15S mutant expressed in Escherichia coli BL21 (DE3) using DABCYL-KTSAVLQ1SGFRKM-E(EDANS)-NH2 as substrate preincubated for 10 mins followed by substrate addition and measured after 5 mins by FRET analysis.
Assay [2] in a line: Inhibition of SARS-CoV-2 main protease T21I mutant expressed in Escherichia coli BL21 (DE3) using DABCYL-KTSAVLQ1SGFRKM-E(EDANS)-NH2 as substrate preincubated for 10 mins followed by substrate addition and measured after 5 mins by FRET analysis.
The nature of assay [3]: Inhibition of SARS-CoV-2 main protease L89F mutant expressed in Escherichia coli BL21 (DE3) using DABCYL-KTSAVLQ1SGFRKM-E(EDANS)-NH2 as substrate preincubated for 10 mins followed by substrate addition and measured after 5 mins by FRET analysis.
Assay [4] is described as follows: Inhibition of SARS-CoV-2 main protease K90R mutant expressed in Escherichia coli BL21 (DE3) using DABCYL-KTSAVLQ1SGFRKM-E(EDANS)-NH2 as substrate preincubated for 10 mins followed by substrate addition and measured after 5 mins by FRET analysis.
Assay [5] can be described thus: Inhibition of SARS-CoV-2 main protease P132H mutant expressed in Escherichia coli BL21 (DE3) using DABCYL-KTSAVLQ1SGFRKM-E(EDANS)-NH2 as substrate preincubated for 10 mins followed by substrate addition and measured after 5 mins by FRET analysis.
Assay [6] can be described thus: Inhibition of SARS-CoV-2 main protease L205V mutant expressed in Escherichia coli BL21 (DE3) using DABCYL-KTSAVLQ1SGFRKM-E(EDANS)-NH2 as substrate preincubated for 10 mins followed by substrate addition and measured after 5 mins by FRET analysis.

Turning to `CC(C)(C)[C@H](NC(=O)C(F)(F)F)C(=O)N1C[C@H]2[C@@H]([C@H]1C(=O)N[C@H](C#N)C[C@@H]1CCNC1=O)C2(C)C`, the IC50 in assay [1] amounted to 10.3 nM; in assay [2] it was 10.1 nM; in assay [3], 10.5 nM; in assay [4], 12.7 nM; in assay [5], 12.2 nM; in assay [6] it was 10.7 nM.
